Reference: patent US12655116B2, “Substituted isophthalic acid diamides” (Bayer Aktiengesellschaft, priority 2020, dated 2026)

Legend:
AVEFA [1] = assay: Post-emergence herbicidal action against AVEFA; format: in vivo, Avena fatua; conditions: Avena fatua, 504 h, 20 g/ha, visual assessment about 3 weeks after treatment, 100% = plants have died, 0% = like control plants
Summary of the method: (§1)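 Herbicidal effect was scored visually in percent after about 3 weeks in the greenhouse. Plants had been raised in sandy loam and treated post-emergence at the one-leaf stage with formulated compound at 600 to 800 l/ha water plus 0.2% wetting agent.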

HORMU = assay: Pre-emergence herbicidal action against HORMU; format: in vivo, Hordeum murinum; conditions: 80 g/ha, pre-emergence
Text: Seeds of monocotyledonous and dicotyledonous weed plants and crop plants are laid out in sandy loam soil in wood-fiber pots and covered with soil. The compounds of the invention, formulated in the form of wettable powders (WP) or as emulsion concentrates (EC), are then applied to the surface of the covering soil in the form of an aqueous suspension or emulsion at a water application rate equivalent to 600 to 800 l/ha, with addition of 0.2% wetting agent. After the treatment, the pots are placed in a greenhouse and kept under good growth conditions for the trial plants. The damage to the test plants is scored visually after a test period of 3 weeks by comparison with untreated controls (herbicidal activity in percent (%): 100% activity=the plants have died, 0% activity=like control plants). […] The tables below illustrate, in an illustrative manner, the post-emergence herbicidal action of the compounds of the invention, the herbicidal activity being stated in percent.

LOLRI = assay: Pre-emergence herbicidal action against LOLRI; format: in vivo, Lolium rigidum; conditions: 80 g/ha
Summary of the method: (§2)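 Herbicidal effect was assessed 3 weeks after treatment by visual comparison with untreated controls, 100% denoting dead plants. Aqueous WP or EC preparations had been applied at 600 to 800 l/ha with 0.2% wetting agent to the soil covering freshly sown seeds.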

ABUTH [2] = assay: Post-emergence herbicidal action against ABUTH; format: in vivo, Abutilon theophrasti; conditions: visual assessment about 3 weeks after treatment vs untreated controls
Summary of the method: as §1

MATIN [3] = assay: Post-emergence herbicidal action against MATIN; format: in vivo, Matricaria inodora
Summary of the method: as §1

AMARE [4] = assay: Pre-emergence herbicidal action against AMARE; format: in vivo, Amaranthus retroflexus
Summary of the method: as §2

MATIN [5] = assay: Pre-emergence herbicidal action against MATIN; format: in vivo, Matricaria inodora
Summary of the method: as §2

SETVI [6] = assay: Post-emergence herbicidal action against SETVI; format: in vivo, Setaria viridis
Summary of the method: as §1

DIGSA [7] = assay: Pre-emergence herbicidal action against DIGSA; format: in vivo, Digitaria sanguinalis
Summary of the method: as §2

ALOMY [8] = assay: Pre-emergence herbicidal action against ALOMY; format: in vivo, Alopecurus myosuroides; conditions: pre-emergence
Summary of the method: as §2

STEME [9] = assay: Post-emergence herbicidal action against STEME; format: in vivo, Stellaria media
Summary of the method: as §1

STEME [10] = assay: Pre-emergence herbicidal action against STEME; format: in vivo, Stellaria media
Summary of the method: as §2

VERPE = assay: Pre-emergence herbicidal action against VERPE; format: in vivo, Veronica persica; conditions: dosage 80 g/ha
Summary of the method: as §2

ECHCG [11] = assay: Pre-emergence herbicidal action against ECHCG; format: in vivo, Echinochloa crus-galli
Summary of the method: as §2

DIGSA [12] = assay: Post-emergence herbicidal action against DIGSA; format: in vivo, Digitaria sanguinalis
Summary of the method: as §1

VIOTR [13] = assay: Post-emergence herbicidal action against VIOTR; format: in vivo, Viola tricolor; conditions: Viola tricolor, 504 h
Summary of the method: as §1

SETVI [14] = assay: Pre-emergence herbicidal action against SETVI; format: in vivo, Setaria viridis
Summary of the method: as §2

ECHCG [15] = assay: Post-emergence herbicidal action against ECHCG; format: in vivo, Echinochloa crus-galli
Summary of the method: as §1

ABUTH [16] = assay: Pre-emergence herbicidal action against ABUTH; format: in vivo, Abutilon theophrasti
Summary of the method: as §2

VIOTR [17] = assay: Pre-emergence herbicidal action against VIOTR; format: in vivo, Viola tricolor
Summary of the method: as §2

AMARE [18] = assay: Post-emergence herbicidal action against AMARE; format: in vivo, Amaranthus retroflexus; conditions: 20 g/ha, visual assessment about 3 weeks after treatment, 100% = plants have died, 0% = like control plants
Summary of the method: as §1

AVEFA [19] = assay: Pre-emergence herbicidal action against AVEFA; format: in vivo, Avena fatua; conditions: pre-emergence
Summary of the method: as §2

PHBPU [20] = assay: Post-emergence herbicidal action against PHBPU; format: in vivo, Pharbitis purpurea; conditions: Ipomoea purpurea, 504 h
Summary of the method: as §1

ALOMY [21] = assay: Post-emergence herbicidal action against ALOMY; format: in vivo, Alopecurus myosuroides; conditions: dosage 20 g/ha, visual assessment about 3 weeks after treatment vs untreated controls
Summary of the method: as §1

PHBPU [22] = assay: Pre-emergence herbicidal action against PHBPU; format: in vivo, Pharbitis purpurea; conditions: dosage 80 g/ha
Summary of the method: as §2

[23] = Tripleurospermum inodorum, 504 h, dosage 20 g/ha
[24] = Setaria viridis, 504 h, dosage 20 g/ha
[25] = 80 g/ha, scored visually after 3 weeks vs untreated controls (100% = plants have died, 0% = like control plants)

Compound: CCNC(=O)c1c(C(F)(F)F)ccc(C(=O)Nc2nnnn2C)c1Cl [Example 1-130]
- pest or weed control at 20 g/ha (AVEFA [1]): 80%
- pest or weed control at 80 g/ha (HORMU; Hordeum murinum, 504 h): 90%
- pest or weed control at 80 g/ha (LOLRI; Lolium rigidum, 504 h): 100%
- pest or weed control at 5 g/ha (ABUTH [2]; Abutilon theophrasti, 504 h, dosage 5 g/ha): 90%
- pest or weed control at 20 g/ha (ABUTH [2]; Abutilon theophrasti, 504 h, dosage 20 g/ha): 90%
- pest or weed control at 20 g/ha (MATIN [3]; [23]): 80%
- pest or weed control at 20 g/ha (AMARE [4]; Amaranthus retroflexus, 504 h, 20 g/ha, scored visually after 3 weeks vs untreated controls, 100% = plants have died, 0% = like control plants): 100%
- pest or weed control at 80 g/ha (AMARE [4]; Amaranthus retroflexus, 504 h, 80 g/ha, scored visually after 3 weeks vs untreated controls, 100% = plants have died, 0% = like control plants): 100%
- pest or weed control at 20 g/ha (MATIN [5]; [23]): 100%
- pest or weed control at 80 g/ha (MATIN [5]; Tripleurospermum inodorum, 504 h, dosage 80 g/ha): 100%
- pest or weed control at 20 g/ha (SETVI [6]; [24]): 80%
- pest or weed control at 20 g/ha (DIGSA [7]; Digitaria sanguinalis, 504 h, dosage 20 g/ha): 100%
- pest or weed control at 80 g/ha (DIGSA [7]; Digitaria sanguinalis, 504 h, dosage 80 g/ha): 100%
- pest or weed control at 80 g/ha (ALOMY [8]; Alopecurus myosuroides, 504 h, 80 g/ha, scored visually after 3 weeks vs untreated controls (100% = plants have died, 0% = like control plants)): 100%
- pest or weed control at 20 g/ha (ALOMY [8]; Alopecurus myosuroides, 504 h, 20 g/ha, scored visually after 3 weeks, 100% = plants have died, 0% = like control plants): 100%
- pest or weed control at 20 g/ha (STEME [9]; Stellaria media, 504 h, 20 g/ha): 80%
- pest or weed control at 5 g/ha (STEME [9]; Stellaria media, 504 h, dosage 5 g/ha): 80%
- pest or weed control at 20 g/ha (STEME [10]; Stellaria media, 504 h, dosage 20 g/ha): 100%
- pest or weed control at 80 g/ha (STEME [10]; Stellaria media, 504 h, dosage 80 g/ha): 100%
- pest or weed control at 80 g/ha (VERPE; Veronica persica, 504 h): 80%
- pest or weed control at 20 g/ha (ECHCG [11]; Echinochloa crus-galli, 504 h, 20 g/ha): 90%
- pest or weed control at 80 g/ha (ECHCG [11]; Echinochloa crus-galli, 504 h, 80 g/ha): 100%
- pest or weed control at 5 g/ha (DIGSA [12]; Digitaria sanguinalis, 504 h, 5 g/ha): 90%
- pest or weed control at 20 g/ha (DIGSA [12]; Digitaria sanguinalis, 504 h, 20 g/ha): 90%
- pest or weed control at 5 g/ha (VIOTR [13]; 5 g/ha): 90%
- pest or weed control at 20 g/ha (VIOTR [13]; 20 g/ha): 90%
- pest or weed control at 20 g/ha (SETVI [14]; [24]): 90%
- pest or weed control at 80 g/ha (SETVI [14]; Setaria viridis, 504 h, dosage 80 g/ha): 100%
- pest or weed control at 5 g/ha (ECHCG [15]; Echinochloa crus-galli, 504 h, dosage 5 g/ha): 80%
- pest or weed control at 20 g/ha (ECHCG [15]; Echinochloa crus-galli, 504 h, dosage 20 g/ha): 80%
- pest or weed control at 80 g/ha (ABUTH [16]; Abutilon theophrasti, 504 h, 80 g/ha, scored visually after 3 weeks vs untreated controls (100% = plants have died, 0% = like control plants)): 100%
- pest or weed control at 20 g/ha (ABUTH [16]; Abutilon theophrasti, 504 h, dosage 20 g/ha, scored visually after 3 weeks vs untreated controls, 100% = plants have died, 0% = like control plants, read-out: Pre-emergence action against ABUTH (herbicidal activity in percent)): 100%
- pest or weed control at 20 g/ha (VIOTR [17]; Viola tricolor, 504 h, dosage 20 g/ha): 100%
- pest or weed control at 80 g/ha (VIOTR [17]; Viola tricolor, 504 h, dosage 80 g/ha): 100%
- pest or weed control at 20 g/ha (AMARE [18]; Amaranthus retroflexus, 504 h): 90%
- pest or weed control at 80 g/ha (AVEFA [19]; Avena fatua, 504 h, 80 g/ha): 100%
- pest or weed control at 20 g/ha (AVEFA [19]; Avena fatua, 504 h, 20 g/ha, scored visually after 3 weeks, 100% = plants have died, 0% = like control plants): 100%
- pest or weed control at 5 g/ha (PHBPU [20]; dosage 5 g/ha): 80%
- pest or weed control at 20 g/ha (PHBPU [20]; dosage 20 g/ha): 90%
- pest or weed control at 20 g/ha (ALOMY [21]; Alopecurus myosuroides, 504 h): 80%

Compound: CCc1c(C(=O)Nc2nnnn2CC)ccc(C(F)(F)F)c1C(=O)NC1CC1 [Example 2-273]
- Pre-emergence action against PHBPU in % (PHBPU [22]): 90%
- Pre-emergence action against HORMU in % (HORMU): 80%
- Pre-emergence action against LOLRI in % (LOLRI): 80%
- Post-emergence action against ABUTH in % (ABUTH [2]; dosage 5 g/ha): 90%
- Post-emergence action against ABUTH in % (ABUTH [2]; dosage 20 g/ha): 90%
- Post-emergence action against MATIN in % (MATIN [3]; dosage 5 g/ha): 80%
- Post-emergence action against MATIN in % (MATIN [3]; dosage 20 g/ha): 90%
- Pre-emergence action against AMARE in % (AMARE [4]; 20 g/ha, scored visually after 3 weeks vs untreated controls, 100% = plants have died, 0% = like control plants): 90%
- Pre-emergence action against AMARE in % (AMARE [4]; [25]): 100%
- Pre-emergence action against MATIN in % (MATIN [5]; dosage 20 g/ha): 100%
- Pre-emergence action against MATIN in % (MATIN [5]; dosage 80 g/ha): 100%
- Post-emergence action against SETVI in % (SETVI [6]; dosage 5 g/ha): 80%
- Post-emergence action against SETVI in % (SETVI [6]; dosage 20 g/ha): 90%
- Pre-emergence action against DIGSA in % (DIGSA [7]; dosage 20 g/ha): 100%
- Pre-emergence action against DIGSA in % (DIGSA [7]; dosage 80 g/ha): 100%
- Pre-emergence action against ALOMY (herbicidal activity) (ALOMY [8]; [25]): 90%
- Post-emergence action against STEME in % (STEME [9]; 20 g/ha): 90%
- Post-emergence action against STEME in % (STEME [9]; dosage 5 g/ha): 80%
- Pre-emergence action against STEME in % (STEME [10]; dosage 20 g/ha): 90%
- Pre-emergence action against STEME in % (STEME [10]; dosage 80 g/ha): 90%
- Pre-emergence action against VERPE in % (VERPE): 100%
- Pre-emergence action against ECHCG in % (ECHCG [11]; 80 g/ha): 90%
- Post-emergence action against DIGSA in % (DIGSA [12]; 5 g/ha): 80%
- Post-emergence action against DIGSA (DIGSA [12]; 20 g/ha): 90%
- Pre-emergence action against SETVI in % (SETVI [14]; dosage 20 g/ha): 80%
- Pre-emergence action against SETVI in % (SETVI [14]; dosage 80 g/ha): 90%
- Post-emergence action against ECHCG in % (ECHCG [15]; dosage 5 g/ha): 80%
- Post-emergence action against ECHCG in % (ECHCG [15]; dosage 20 g/ha): 90%
- Pre-emergence action against ABUTH (herbicidal activity) (ABUTH [16]; [25]): 90%
- Pre-emergence action against ABUTH (herbicidal activity in percent) (ABUTH [16]; dosage 20 g/ha, scored visually after 3 weeks vs untreated controls, 100% = plants have died, 0% = like control plants): 90%
- Pre-emergence action against VIOTR in % (VIOTR [17]; dosage 20 g/ha): 90%
- Pre-emergence action against VIOTR in % (VIOTR [17]; dosage 80 g/ha): 100%
- Post-emergence action at 20 g/ha against AMARE in % (AMARE [18]): 90%
- Pre-emergence action against AVEFA in % (AVEFA [19]; 80 g/ha): 90%
- Post-emergence action against ALOMY in % (ALOMY [21]): 80%
